Source: patent US11272709B2, “Amidine substituted benzoyl derivatives useful as herbicides” (Syngenta Participations AG, priority 2018, dated 2022)

Experiments:
Type in all cases: in vivo
Details in all cases: evaluated after 13 days
[1] = system: Abutilon theophrasti (ABUTH); assay: Pre-emergence herbicidal glasshouse test, Abutilon theophrasti (ABUTH)
Experimental: (§1) Seeds of a variety of test species are sown in standard soil in pots (Lolium perenne (LOLPE), Amaranthus retoflexus (AMARE), Abutilon theophrasti (ABUTH), Setaria faberi (SETFA), Echinochloa crus-galli (ECHCG), Ipomoea hederacea (IPOHE)). After cultivation for one day (pre-emergence) or after 8 days cultivation (post-emergence) under controlled conditions in a glasshouse (at 24/16° C., day/night; 14 hours light; 65% humidity), the plants are sprayed with an aqueous spray solution derived from the formulation of the technical active ingredient in acetone/water (50:50) solution containing 0.5% Tween 20 (polyoxyethelyene sorbitan monolaurate, CAS RN 9005-64-5). Compounds are applied at 500 g/h unless otherwise indicated. The test plants are then grown in a glasshouse under controlled conditions in a glasshouse (at 24/16° C., day/night; 14 hours light; 65% humidity) and watered twice daily. After 13 days for pre and post-emergence, the test is evaluated for the percentage damage caused to the plant. The biological activities are shown in the following table on a five point scale (5=80-100%; 4=60-79%; 3=40-59%; 2=20-39%; 1=0-19%).

[2] = system: Abutilon theophrasti (ABUTH); assay: Post-emergence herbicidal glasshouse test, Abutilon theophrasti (ABUTH)
Experimental: as §1

[3] = system: Amaranthus retoflexus (AMARE); assay: Pre-emergence herbicidal glasshouse test, Amaranthus retoflexus (AMARE)
Experimental: as §1

[4] = system: Echinochloa crus-galli (ECHCG); assay: Pre-emergence herbicidal glasshouse test, Echinochloa crus-galli (ECHCG)
Experimental: as §1

[5] = system: Amaranthus retoflexus (AMARE); assay: Post-emergence herbicidal glasshouse test, Amaranthus retoflexus (AMARE)
Experimental: as §1

[6] = system: Setaria faberi (SETFA); assay: Post-emergence herbicidal glasshouse test, Setaria faberi (SETFA)
Experimental: as §1

[7] = system: Ipomoea hederacea (IPOHE); assay: Pre-emergence herbicidal glasshouse test, Ipomoea hederacea (IPOHE)
Experimental: as §1

[8] = system: Setaria faberi (SETFA); assay: Pre-emergence herbicidal glasshouse test, Setaria faberi (SETFA)
Experimental: as §1

[9] = system: Echinochloa crus-galli (ECHCG); assay: Post-emergence herbicidal glasshouse test, Echinochloa crus-galli (ECHCG)
Experimental: as §1

[10] = system: Ipomoea hederacea (IPOHE); assay: Post-emergence herbicidal glasshouse test, Ipomoea hederacea (IPOHE)
Experimental: as §1

SMILES | PRE Application ABUTH, percentage damage (five point scale) ([1]; 500 g/h) | POST Application ABUTH, percentage damage (five point scale) ([2]; 500 g/h) | PRE Application AMARE, percentage damage (five point scale) ([3]; 500 g/h) | PRE Application ECHCG, percentage damage (five point scale) ([4]; 500 g/h) | POST Application AMARE, percentage damage (five point scale) ([5]; 500 g/h) | POST Application SETFA, percentage damage (five point scale) ([6]; 500 g/h) | PRE Application IPOHE, percentage damage (five point scale) ([7]; 500 g/h) | PRE Application SETFA, percentage damage (five point scale) ([8]; 500 g/h) | POST Application ECHCG, percentage damage (five point scale) ([9]; 500 g/h) | POST Application IPOHE, percentage damage (five point scale) ([10]; 500 g/h) | also measured
CN(C=Nc1c(S(C)(=O)=O)ccc(C(=O)Nc2nnnn2C)c1Cl)c1ccccc1 [Compound 1.145] | 5 (5=80-100%) | 3 (3=40-59%) | 5 (5=80-100%) | 5 (5=80-100%) | 4 (4=60-79%) | 5 (5=80-100%) | 4 (4=60-79%) | 5 (5=80-100%) | 5 (5=80-100%) | 4 (4=60-79%) | –
CC(C)N(C)C=Nc1c(C(F)(F)F)ccc(C(=O)Nc2nnnn2C)c1Cl [Compound 1.140] | 5 (5=80-100%) | 5 (5=80-100%) | 5 (5=80-100%) | 5 (5=80-100%) | 5 (5=80-100%) | 5 (5=80-100%) | 5 (5=80-100%) | 5 (5=80-100%) | 5 (5=80-100%) | 5 (5=80-100%) | –
CN(C)C=Nc1c(S(C)(=O)=O)ccc(C(=O)Nc2nnnn2C)c1Cl [Compound 1.057] | – | – | – | – | – | – | – | – | – | – | PRE Application ABUTH, percentage damage (five point scale) ([1]; applied at 125 g/ha): 5 (5=80-100%); POST Application ABUTH, percentage damage (five point scale) ([2]; applied at 125 g/ha): 5 (5=80-100%); PRE Application AMARE, percentage damage (five point scale) ([3]; applied at 125 g/ha): 5 (5=80-100%); PRE Application ECHCG, percentage damage (five point scale) ([4]; applied at 125 g/ha): 5 (5=80-100%); POST Application AMARE, percentage damage (five point scale) ([5]; applied at 125 g/ha): 5 (5=80-100%); POST Application SETFA, percentage damage (five point scale) ([6]; applied at 125 g/ha): 5 (5=80-100%); PRE Application IPOHE, percentage damage (five point scale) ([7]; applied at 125 g/ha): 5 (5=80-100%); PRE Application SETFA, percentage damage (five point scale) ([8]; applied at 125 g/ha): 5 (5=80-100%); POST Application ECHCG, percentage damage (five point scale) ([9]; applied at 125 g/ha): 5 (5=80-100%); POST Application IPOHE, percentage damage (five point scale) ([10]; applied at 125 g/ha): 5 (5=80-100%)
Cc1c(C(=O)Nc2nnnn2C)ccc(S(C)(=O)=O)c1/N=C/N(C)C [Compound 1.025, 3-[(E)-dimethylaminomethyleneamino]-2-methyl-4-methylsulfonyl-N-(1-methyltetrazol-5-yl)benzamide] | 5 (5=80-100%) | 5 (5=80-100%) | 5 (5=80-100%) | 5 (5=80-100%) | 5 (5=80-100%) | 5 (5=80-100%) | 5 (5=80-100%) | 5 (5=80-100%) | 5 (5=80-100%) | 5 (5=80-100%) | –
Cc1nnc(NC(=O)c2ccc(C(F)(F)F)c(N=CN(C)C)c2C)o1 [Compound 2.017] | 5 (5=80-100%) | 4 (4=60-79%) | 5 (5=80-100%) | 5 (5=80-100%) | 5 (5=80-100%) | 5 (5=80-100%) | 5 (5=80-100%) | 4 (4=60-79%) | 5 (5=80-100%) | 4 (4=60-79%) | –
Cn1nnnc1NC(=O)c1ccc(C(F)(F)F)c(/N=C/N2CCCC2)c1Cl [Compound 1.132, 2-chloro-N-(1-methyltetrazol-5-yl)-3-[(E)-pyrrolidin-1-ylmethyleneamino]-4-(trifluoromethyl)benzamide] | 5 (5=80-100%) | 5 (5=80-100%) | 5 (5=80-100%) | 5 (5=80-100%) | 5 (5=80-100%) | 5 (5=80-100%) | 5 (5=80-100%) | 5 (5=80-100%) | 5 (5=80-100%) | 5 (5=80-100%) | –
CCCn1nnnc1NC(=O)c1ccc(S(C)(=O)=O)c(N=CN(C)C)c1C [Compound 7.002] | 5 (5=80-100%) | 5 (5=80-100%) | 5 (5=80-100%) | 5 (5=80-100%) | 5 (5=80-100%) | 5 (5=80-100%) | 5 (5=80-100%) | 5 (5=80-100%) | 5 (5=80-100%) | 4 (4=60-79%) | –
Cc1nnc(NC(=O)c2ccc(S(C)(=O)=O)c(N=CN(C)CC(F)(F)F)c2Cl)o1 [Compound 2.142] | – | – | – | – | – | – | – | – | – | – | PRE Application ABUTH, percentage damage (five point scale) ([1]; applied at 250 g/ha): 3 (3=40-59%); POST Application ABUTH, percentage damage (five point scale) ([2]; applied at 250 g/ha): 5 (5=80-100%); PRE Application AMARE, percentage damage (five point scale) ([3]; applied at 250 g/ha): 5 (5=80-100%); PRE Application ECHCG, percentage damage (five point scale) ([4]; applied at 250 g/ha): 5 (5=80-100%); POST Application AMARE, percentage damage (five point scale) ([5]; applied at 250 g/ha): 5 (5=80-100%); POST Application SETFA, percentage damage (five point scale) ([6]; applied at 250 g/ha): 5 (5=80-100%); PRE Application IPOHE, percentage damage (five point scale) ([7]; applied at 250 g/ha): 1 (1=0-19%); PRE Application SETFA, percentage damage (five point scale) ([8]; applied at 250 g/ha): 5 (5=80-100%); POST Application ECHCG, percentage damage (five point scale) ([9]; applied at 250 g/ha): 5 (5=80-100%); POST Application IPOHE, percentage damage (five point scale) ([10]; applied at 250 g/ha): 5 (5=80-100%)
CCN(C=Nc1c(S(C)(=O)=O)ccc(C(=O)Nc2nnc(C)o2)c1C)CC [Compound 2.031] | 4 (4=60-79%) | 5 (5=80-100%) | 5 (5=80-100%) | 5 (5=80-100%) | 5 (5=80-100%) | 5 (5=80-100%) | 4 (4=60-79%) | 5 (5=80-100%) | 5 (5=80-100%) | 4 (4=60-79%) | –
CN(C=Nc1c(C(F)(F)F)ccc(C(=O)C2=C(O)CCCC2=O)c1Cl)CC(F)(F)F [Compound 3.130] | 5 (5=80-100%) | 5 (5=80-100%) | 5 (5=80-100%) | 5 (5=80-100%) | 5 (5=80-100%) | 5 (5=80-100%) | 5 (5=80-100%) | 5 (5=80-100%) | 5 (5=80-100%) | 4 (4=60-79%) | –
CON=C(C)N(C)Cc1c(S(C)(=O)=O)ccc(C(=O)Nc2nnnn2C)c1Cl [Compound 4.016, 2-chloro-3-[[[N-methoxy-C-methyl-carbonimidoyl]-methyl-amino]methyl]-4-methylsulfonyl-N-(1-methyltetrazol-5-yl)benzamide] | 5 (5=80-100%) | 3 (3=40-59%) | 5 (5=80-100%) | 5 (5=80-100%) | 4 (4=60-79%) | 5 (5=80-100%) | 5 (5=80-100%) | 5 (5=80-100%) | 5 (5=80-100%) | 4 (4=60-79%) | –
CN(C)C=Nc1c(Cl)ccc(C(=O)Nc2nnnn2C)c1Cl [Compound 1.041] | 5 (5=80-100%) | 5 (5=80-100%) | 5 (5=80-100%) | 5 (5=80-100%) | 5 (5=80-100%) | 5 (5=80-100%) | 5 (5=80-100%) | – | 5 (5=80-100%) | 5 (5=80-100%) | –
